Laboratory results reported in US4812162A, “Indole derivatives and their use as fungicides, insecticides and pesticides” (Imperial Chemical Industries PLC, priority 1986, dated 1989).

How the values were obtained:
Erysiphe graminis = experiment: fungicidal activity against foliar fungal diseases of plants, Erysiphe graminis (barley); assay type: in vivo; conditions: 100 ppm foliar spray plus root drench ca. 40 ppm a.i./dry soil, inoculated 24 hours before treatment
Venturia inaequalis = experiment: fungicidal activity against foliar fungal diseases of plants, Venturia inaequalis (apple); assay type: in vivo; conditions: 100 ppm foliar spray plus root drench ca. 40 ppm a.i./dry soil, 1-2 days before inoculation
Pyricularia oryzae = assay type: in vivo; conditions: 100 ppm foliar spray plus root drench ca. 40 ppm a.i./dry soil, 1-2 days before inoculation
Cercospora arachidicola = experiment: fungicidal activity against foliar fungal diseases of plants, Cercospora arachidicola (peanut); assay type: in vivo; conditions: 100 ppm foliar spray plus root drench ca. 40 ppm a.i./dry soil, 1-2 days before inoculation
Plasmorpara viticola = experiment: fungicidal activity against foliar fungal diseases of plants, Plasmorpara viticola (vine); assay type: in vivo; conditions: 100 ppm foliar spray plus root drench ca. 40 ppm a.i./dry soil, 1-2 days before inoculation
Puccinia recondita = experiment: fungicidal activity against foliar fungal diseases of plants, Puccinia recondita (wheat); assay type: in vivo; conditions: 100 ppm foliar spray plus root drench ca. 40 ppm a.i./dry soil, 1-2 days before inoculation
Rice = experiment: plant growth regulating, whole plant screen, rice; assay type: in vivo, Rice (Ishikari); conditions: rice (RC); 4000 ppm (4 kg/ha); after 2-6 weeks
Protocol: (§1) This Example illustrates the plant growth regulating properties of compounds 1 and 2 when tested on a whole plant screen against various species of plant. The plant species are identified in Table IV with the leaf stage at which they were sprayed.
(§2) A formulation of each chemical was applied at 4000 ppm (4 kg/ha in a 1000 l/ha field volume) using a tracksprayer and a SS8004E (Teejet) nozzle.
(§3) After spraying, the plants were grown in a glasshouse with 25° C. day/22° C. night temperatures. Supplementary lighting was supplied when necessary to provide an average photoperiod of 16 hours (14 hours minimum).
(§4) After 2-6 weeks in the glasshouse, depending on species and time of year, the plants were visually assessed for morphological characteristics against a control plant sprayed with a blank formulation.

Apple = experiment: plant growth regulating, whole plant screen, apple; assay type: in vivo, Apple (Red Delicious); conditions: apple (AP); 4000 ppm (4 kg/ha); after 2-6 weeks
Protocol: as §1, §2, §3, §4

[1] = system: Tetranychus urticae (spider mites - adults); experiment: insecticidal properties, contact test, Tetranychus urticae adults (TUa); assay type: in vivo; conditions: 500 ppm, French bean leaf, 3 days
Text: (§5) "SYNPERONIC" is a Registered Trade Mark.

[2] = system: Tetranychus urticae (spider mites - ova); experiment: insecticidal properties, contact test, Tetranychus urticae ova (TUe); assay type: in vivo; conditions: 500 ppm, French bean leaf, 6 days
Text: as §5

Myzus persicae (aphids) = experiment: insecticidal properties, contact test, Myzus persicae (MP); assay type: in vivo; conditions: 500 ppm, Chinese Cabbage leaf, 3 days
Text: as §5

[3] = system: Nilaparvata lugens (brown plant hopper - nymphs); experiment: insecticidal properties, contact test, Nilaparvata lugens nymphs (NL); assay type: in vivo; conditions: 500 ppm, rice plant, 3 days
Text: as §5

[4] = system: Musca domestica (houseflies - adults); experiment: insecticidal properties, contact test, Musca domestica adults (MDa); assay type: in vivo; conditions: 500 ppm, cotton wool/sugar, 1 day
Text: as §5

[5] = system: Musca domestica (houseflies - adults); experiment: knockdown properties against Musca domestica (MDk); assay type: in vivo; conditions: 2000 ppm sprayed directly; inverted cup; knockdown at 15 minutes, mortality at 48 hours; 2 days
Protocol: A sample of compound 1 was diluted with 2 mls acetone and made up of a 2000 ppm solution with 0.1% aqueous synperonic solution. The solution (1 ml) was then sprayed directly onto twenty mixed sex houseflies held in a drinking cup. Immediately after spraying the cups were inverted and left to dry. An assessment of knockdown was made when the cups were righted 15 minutes later. The flies were then provided with a 10% sucrose solution on a cotton wool pad, and held for 48 hours in a holding room conditioned at 25° C. and 65% relative humidity before a mortality assessment was made.

[6] = system: Heliothis virescens (tobacco budworm - larvae); experiment: insecticidal properties, residual test, Heliothis virescens larvae (HV); assay type: in vivo; conditions: 500 ppm, cotton leaf, 3 days
Text: as §5

[7] = system: Diabrotica balteata (rootworm larvae); experiment: insecticidal properties, residual test, Diabrotica balteata (DB); assay type: in vivo; conditions: 500 ppm, filter paper/maize seed, 3 days
Text: as §5

[8] = system: Meloidogyne incognita (tomato root knot eelworm - larvae); experiment: nematode test, residual, Meloidogyne incognita larvae (MI); assay type: in vivo; conditions: 250 ppm, semi in-vitro, 7 days
Text: as §5
MI Meloidogyne incognita

[9] = system: Blattella germanica (cockroach nymphs); experiment: insecticidal properties, residual test, Blattella germanica nymphs (BG); assay type: in vivo; conditions: 500 ppm, plastic pot, 3 days
Text: as §5

[10] = system: Chilo partellus (maize and sorghum stem borers - larvae); experiment: insecticidal properties, residual test, Chilo partellus larvae (CPA); conditions: 500 ppm, oilseed rape, 3 days
Protocol: The activity of the compound was determined using insect, mite and nematode pests. The compound was used in the form of a liquid preparation containing 500 parts per million (ppm) by weight of the compound except for the test on Meloidogyne incognita when a liquid preparation of 250 ppm by weight was used. The preparation was made by dissolving the compound in acetone and diluting the solution with water containing 0.1% by weight of a wetting agent sold under the trade name "SYNPERONIC" NX until the liquid preparation contained the required concentration of the product.
The test procedure adopted with regard to each pest was basically the same and comprised supporting a number of the pests on a medium which was usually a host plant or a foodstuff on which the pests feed, and treating either or both the pests and the medium with the preparation. The mortality of the pests was then assessed at periods usually varying from one to seven days after the treatment.
The results of the tests are given in Table VII as a grading of mortality designated as 9, 5 or 0 wherein 9 indicates 80-100% mortality, 5 indicates 50-79% mortality and 0 indicates less than 50% mortality.

Phytophthora infestans = assay type: in vivo; conditions: 100 ppm foliar spray plus root drench ca. 40 ppm a.i./dry soil, 1-2 days before inoculation
Tomato = experiment: plant growth regulating, whole plant screen, tomato; assay type: in vivo, Tomato (Ailsa Craig); conditions: tomato (TO); 4000 ppm (4 kg/ha); after 2-6 weeks
Protocol: as §1, §2, §3, §4

Maize = experiment: plant growth regulating, whole plant screen, maize; assay type: in vivo, Maize (Earliking); conditions: maize (MZ); 4000 ppm (4 kg/ha); after 2-6 weeks
Protocol: as §1, §2, §3, §4

Compound | disease control, ERYSIPHE GRAMINIS (BARLEY) (Erysiphe graminis) | disease control, VENTURIA INAEQUALIS (APPLE) (Venturia inaequalis) | disease control, P[…] (RICE) (Pyricularia oryzae) | disease control, CERCOSPORA ARACHIDICOLA (PEANUT) (Cercospora arachidicola) | disease control, PLASMORPARA VITICOLA (VINE) (Plasmorpara viticola) | disease control, PUCCINIA RECONDITA (WHEAT) (Puccinia recondita) | disease control, PH[…] (TOMATO) (Phytophthora infestans) | other results
CO/C=C(/C(=O)OC)n1ccc2ccccc21 [Compound 1] | 1 (26-59% of disease on untreated plants) | 3 (trace--5% of disease on untreated plants) | 3 (trace--5% of disease on untreated plants) | 3 (trace--5% of disease on untreated plants) | 4 | 0 (60-100% of disease on untreated plants) |  | I = Interligular or internodal length reduction (Rice): 1 (10-30%); R = Retardation (Rice): 1 (10-30%); I = Interligular or internodal length reduction (Apple): 1 (10-30%); R = Retardation (Apple): 1 (10-30%); grading of mortality, TUa [1]: 9 (80-100% mortality); grading of mortality, TUe [2]: 0 (less than 50% mortality); grading of mortality, MP (Myzus persicae (aphids)): 0 (less than 50% mortality); grading of mortality, NL [3]: 0 (less than 50% mortality); grading of mortality, MDa [4]: 0 (less than 50% mortality); grading of mortality, MDk (knockdown) [5]: 0 (less than 50% mortality); grading of mortality, HV [6]: 0 (less than 50% mortality); grading of mortality, DB [7]: 0 (less than 50% mortality); grading of mortality, MI [8]: 0 (less than 50% mortality); grading of mortality, BG [9]: 0 (less than 50% mortality); grading of mortality, CPA [10]: 9 (80-100% mortality)
CO/C=C(/C(=O)OC)n1ccc2ccc(Br)cc21 [Compound 7] | 4 | 4 |  | 4 | 4 | 4 | 4 | 
CO/C=C(/C(=O)OC)n1ccc2ccc(I)cc21 [Compound 8] | 4 | 4 |  | 4 | 4 | 4 | 4 | 
CO/C=C(/C(=O)OC)n1ccc2ccc(OC)cc21 [Compound 4] | 2 (6-25% of disease on untreated plants) | 4 | 4 | 3 (trace--5% of disease on untreated plants) | 4 | 1 (26-59% of disease on untreated plants) | 0 (60-100% of disease on untreated plants) | 
CCOc1ccc2ccn(/C(=C\OC)C(=O)OC)c2c1 [Compound 2, (Z)-methyl 3-methoxy-2-[6-ethoxyindol-1-yl]acrylate] | 4 | 4 | 4 | 4 | 4 | 4 | 4 | A = Apical damage (Tomato): 3 (61-100%); I = Interligular or internodal length reduction (Tomato): 3 (61-100%); P = Phytotoxicity (Tomato): 2 (11-30%); R = Retardation (Tomato): 3 (61-100%); T = Tillering or side shooting (Tomato): 1 (10-30%); A = Apical damage (Maize): 2 (31-60%); G = Greening effect (Maize): 1 (10-30%)
CO/C=C(/C(=O)OC)n1ccc2ccc(-c3ccccc3)cc21 [Compound 3, (Z)-methyl 3-methoxy-2-[6-phenylindol-1-yl]acrylate] | 2 (6-25% of disease on untreated plants) | 4 | 4 |  | 4 | 4 | 4 | 
